{"source": "patent US9662404B2", "about": "“Compositions and methods for the delivery of molecules into live cells” (The Texas A&M University System, priority 2013, dated 2017)", "format_in_all_cases": "cell-based", "key": {"[1]": {"test_system": "HeLa cells", "assay": "Delivery of peptides inside live cells, internalization assessed by fluorescence microscopy", "details": "for cellular localization of peptide fluorescence: 1 h incubation", "procedure": "The TAT, dTAT and acTAT peptides were incubated for 1 h with several cell lines and internalization was assessed by fluorescence microscopy. […] See also FIG. 5. […] The cell lines HeLa, NIH 3T3, COLO 316 and HaCaT were incubated with 5 μM dTAT for 1 h, washed and imaged. […] After imaging, cells were incubated at 37° C. in a humidified atmosphere containing 5% CO2 for 24 h, washed and imaged again. […] Cell viability was assessed by exclusion of the cell-impermeable nuclear stain SYTOX® Blue at both 1 h and 24 h time point. […] Inverted monochrome (black=fluorescence signal, white-no signal) fluorescence images were made of HeLa cells incubated with 10 or 20 μM of TAT for 1 h.\nLive cells from different lines (HeLa, HaCat, NIH 3T3) were grown in Dulbecco's […] (DMEM) (Fisher) supplemented with 10% fetal bovine serum (FBS) (Fisher) and kept at 37° C. in a humidified atmosphere containing 5% CO2. Cells were then seeded in 8-well dishes so that the cells were 80%-90% confluent after 48 h. […] The media (nrL-15) used for incubation lacks cysteine to avoid reduction of the disulfide bond of dTAT. Cells were then incubated with different concentrations of the acTAT, TAT, or dTAT at 37° C. for 1 h. […] Images were collected using a Rolera-MGI Plus back-illuminated EMCCD camera (Qimaging, Surrey, BC, Canada). Images were acquired using bright field imaging and three standard fluorescence filter sets: CFP (Ex=436±10 nm/Em=480±20 nm), RFP (Ex=560±20 nm/Em=630±35 nm), and FITC (Ex=488±10 nm/Em=520±20 nm). The fluorescence intensities of different cells were measured with the SlideBook 4.2 software (Olympus, Center Valley, Pa.) and the average fluorescence intensity was determined for each condition. It has been previously reported that CPPs labeled with fluorophores such as TMR can photosensitize membranes and cause endosomal leakage upon light irradiation. See, Srinivasan, D. et al., “Conjugation to the cell-penetrating peptide TAT potentiates the photodynamic effect of carboxytetramethylrhodamine,” PloS one 6:e17732 (2011) and Muthukrishnan, N., et al., “Synergy Between Cell-Penetrating Peptides and Singlet Oxygen Generators Leads to Efficient Photolysis of Membranes,” Photochemistry and Photobiology 89:625-630 (2012), each incorporated herein by reference in its entirety. […] First, all delivery experiments were performed under conditions of minimal light irradiation (dark room with dim red light). When fluorescence imaging is required, probes (e.g., SNAP surface 488, EGFP) are imaged before dTAT is, thereby minimizing the possible effect of light on endosomal release. For experiments performed with Cre and Hoxb4, cells are not imaged and not exposed to light (not at all for Hoxb4, 12 h after incubation for Cre)."}, "[2]": {"test_system": "HeLa cells", "assay": "Quantitative determination of peptide uptake inside cells (bulk fluorescence of cell lysates)", "details": "1-10 μM, 1 h", "procedure": "HeLa cells were seeded in a 48 well dish, grown and washed as described above. For the peptide uptake experiment, each well was incubated for 1 h with varying concentration of acTAT, TAT or dTAT (range: 5-25 μM peptide concentration). For the titration experiment, cells were incubated with dTAT (5 μM) and varying concentrations of DEAC-K9 (range: 1-20 μM). Cells were then washed with PBS and nrL-15 and imaged. Multiple images for each condition were obtained and processed. To lyse cells, nrL-15 was removed from the wells and a total of 100 μL of HeLa cell lysis Buffer (50 mM Tris pH 7.5, 2 mM EDTA, 2 mM DTT, 0.1% Triton X-100) was incubated with cells for 5 min. The cells were lysed and scraped off the dish and pipetted into a 1.5 mL microcentrifuge tube. The cell lysates were centrifuged at 13.2K RPM for 25 min. […] The fluorescence from the cell lysates were measured using a plate reader equipped with a fluorescence module (Ex==525, Em=580-640 nm) (GloMax®-Multi+ Detection System, Promega, Fitchburg, Wis.). For the titration experiment, 80 μL of supernatant was diluted to a total volume of 100 μL and the bulk fluorescence was measured using a SLM-8000C fluorometer (Ex=435 nm, Em=465-475 nm) (SLM Instruments, Bath, UK). The fluorescence emission was averaged and recorded. […] The absorbance at 600 nm was measured using the plate reader. […]"}, "[3]": {"test_system": "HeLa cells", "assay": "dTAT-induced cytosolic release of DEAC-K9 trapped inside endosomes", "details": "5 μM DEAC-K9 1 h, wash, 5 μM dTAT 1 h", "procedure": "FIGS. 8A-8C illustrate that dTAT mediates endosomal escape. (FIG. 8A) Effect of endocytic inhibitors on the cellular distribution of dTAT. HeLa cells were pre-treated with 50 μM amiloride or 200 nM bafilomycin for 30 and 20 min respectively, washed, and incubated with 5 μM dTAT and inhibitor. […] Scale bar, 10 μm. […] A schematic illustration of the experimental steps is shown (top). First, cells were incubated with 5 μM DEAC-K9 for 1 h and washed. Inverted monochrome images show a fluorescence punctuate distribution after incubation with DEAC-K9 alone. The same cells were then incubated with 5 μM dTAT for 1 h. Images show a redistribution of DEAC-K9 to the cytosol and nucleus (inhibited by bafilomycin). Scale bars, 10 μm. (FIG. 8C) The endosomolytic activity of dTAT is highly efficient. HeLa cells expressing SNAPH2B were incubated with 5 μM dTAT and 5 μM SNAP-Surface® 488. Fluorescence images show accumulation of SNAP-Surface® 488 in the nucleus. […] Small panels show cytosolic and nuclear fluorescence of TMR. Scale bars, 10 μm.\nTo test whether endosomal escape is involved in delivery of dTAT, the effects of amiloride, a macropinocytosis inhibitor, and bafilomycin, an inhibitor of endosomal acidification, were assessed. […] Cells were then washed and incubated with dTAT (FIG. 8B). […] This redistribution was however inhibited by bafilomycin."}}, "note": "Ends that are not written are not given here.", "data": [{"substance": "(CK(TMR)TAT)2 (CK(TMR)RKKRRQRRRG; also: dimer) [dTAT, dimer of two CK(TMR)-TAT monomers linked via a disulfide bond between the N-terminal cysteine residues]", "values": [{"measurement": "cells in which cytosolic delivery is observed", "setting": "[1]; 5 μM", "value": "more than 95%"}, {"measurement": "concentration range with dramatic increase in cytosolic delivery of the peptide", "setting": "[1]; HeLa cells, dTAT 1-5 μM", "value": "2 to 5", "unit": "µM"}, {"measurement": "cellular localization of peptide fluorescence", "setting": "[1]; above 5 μM", "value": "distributed in the cytosol and nucleus"}, {"measurement": "cellular localization of peptide fluorescence", "setting": "[1]; below 2 μM", "value": "punctate"}, {"measurement": "overall amount of peptide inside cells (cytosol+endosomes), bulk fluorescence of lysates", "setting": "[2]", "value": "almost linearly correlated to the concentration of dTAT administered extracellularly"}, {"measurement": "distribution of DEAC-K9 fluorescence after subsequent addition of dTAT", "setting": "[3]", "value": "redistribution of the DEAC signal throughout the cytosol and nucleus"}]}]}
